Literature values, collected in patent US11827744B2, “Bottlebrush copolymers and uses thereof” (Massachusetts Institute of Technology, priority 2016, dated 2023).

Experiments:
[1] = in vivo

For `CCc1c2c(nc3ccc(O)cc13)-c1cc3c(c(=O)n1C2)COC(=O)[C@]3(O)CC` [SN-38], the water solubility is listed as “low water solubility” and the circulation life-times [1] is listed as “short circulation life-times”.
